The values that follow come from article PMC7026418, “The kinase polypharmacology landscape of clinical PARP inhibitors” (Scientific Reports, 2020).

Like-named read-outs stand apart in the source and are kept apart here.

Targets include PIK3CA(Q546K) (Homo sapiens, UniProt P42336, Q546K); CAMK2A (Homo sapiens, UniProt Q9UQM7); EPHA5 (Homo sapiens, UniProt P54756); FYN (Homo sapiens, UniProt P06241); FGFR3 (Homo sapiens, UniProt P22607); EGFR(L858R,T790M) (Homo sapiens, UniProt P00533, L858R/T790M).
Assay in all cases: biochemical
What all share (parameters): DiscoveRx KINOMEscan active site-directed competition binding; percent of control kinase bound to immobilised ligand

Experiment [1] concerns the target T1, ABL1(F317I)-phosphorylated (Homo sapiens, UniProt P00519, F317I).
T1 construct: phosphorylated

The target in another experiment is T2, CTK (Homo sapiens, UniProt P42679).
T2 construct: gene MATK
T2 sequence (P42679 1-507): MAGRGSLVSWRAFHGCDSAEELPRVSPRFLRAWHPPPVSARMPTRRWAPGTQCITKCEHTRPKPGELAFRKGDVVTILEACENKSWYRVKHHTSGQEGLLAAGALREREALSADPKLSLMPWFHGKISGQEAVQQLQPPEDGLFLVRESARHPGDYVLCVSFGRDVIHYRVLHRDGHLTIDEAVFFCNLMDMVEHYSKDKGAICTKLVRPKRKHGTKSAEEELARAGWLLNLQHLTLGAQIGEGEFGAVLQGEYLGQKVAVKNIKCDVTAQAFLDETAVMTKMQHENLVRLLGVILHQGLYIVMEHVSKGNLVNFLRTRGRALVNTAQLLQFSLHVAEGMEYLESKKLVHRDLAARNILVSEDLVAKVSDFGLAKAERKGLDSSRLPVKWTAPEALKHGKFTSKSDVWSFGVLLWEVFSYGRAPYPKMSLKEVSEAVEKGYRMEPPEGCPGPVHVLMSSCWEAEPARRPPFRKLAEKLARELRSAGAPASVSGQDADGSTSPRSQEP

In another experiment the target is T3, HIPK4 (Homo sapiens, UniProt Q8NE63).
T3 sequence (Q8NE63 1-616): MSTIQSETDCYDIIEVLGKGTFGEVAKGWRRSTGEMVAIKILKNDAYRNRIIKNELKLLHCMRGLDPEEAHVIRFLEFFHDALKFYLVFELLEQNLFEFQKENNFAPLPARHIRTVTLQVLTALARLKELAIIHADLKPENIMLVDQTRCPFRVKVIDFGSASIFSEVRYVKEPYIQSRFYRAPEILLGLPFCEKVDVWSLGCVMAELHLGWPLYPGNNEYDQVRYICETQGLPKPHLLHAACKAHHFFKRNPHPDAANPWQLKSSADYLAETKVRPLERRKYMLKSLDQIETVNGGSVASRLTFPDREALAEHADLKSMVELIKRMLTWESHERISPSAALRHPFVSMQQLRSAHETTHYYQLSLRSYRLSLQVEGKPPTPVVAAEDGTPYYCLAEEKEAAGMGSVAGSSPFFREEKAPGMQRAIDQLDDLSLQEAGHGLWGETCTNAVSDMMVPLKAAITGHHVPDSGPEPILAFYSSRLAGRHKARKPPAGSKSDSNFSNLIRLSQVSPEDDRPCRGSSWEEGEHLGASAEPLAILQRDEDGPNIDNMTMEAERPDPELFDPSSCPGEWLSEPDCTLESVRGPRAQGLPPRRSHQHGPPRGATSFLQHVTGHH

In a further experiment the target is T4, GRK3 (Homo sapiens, UniProt P35626).
T4 sequence (P35626 1-688): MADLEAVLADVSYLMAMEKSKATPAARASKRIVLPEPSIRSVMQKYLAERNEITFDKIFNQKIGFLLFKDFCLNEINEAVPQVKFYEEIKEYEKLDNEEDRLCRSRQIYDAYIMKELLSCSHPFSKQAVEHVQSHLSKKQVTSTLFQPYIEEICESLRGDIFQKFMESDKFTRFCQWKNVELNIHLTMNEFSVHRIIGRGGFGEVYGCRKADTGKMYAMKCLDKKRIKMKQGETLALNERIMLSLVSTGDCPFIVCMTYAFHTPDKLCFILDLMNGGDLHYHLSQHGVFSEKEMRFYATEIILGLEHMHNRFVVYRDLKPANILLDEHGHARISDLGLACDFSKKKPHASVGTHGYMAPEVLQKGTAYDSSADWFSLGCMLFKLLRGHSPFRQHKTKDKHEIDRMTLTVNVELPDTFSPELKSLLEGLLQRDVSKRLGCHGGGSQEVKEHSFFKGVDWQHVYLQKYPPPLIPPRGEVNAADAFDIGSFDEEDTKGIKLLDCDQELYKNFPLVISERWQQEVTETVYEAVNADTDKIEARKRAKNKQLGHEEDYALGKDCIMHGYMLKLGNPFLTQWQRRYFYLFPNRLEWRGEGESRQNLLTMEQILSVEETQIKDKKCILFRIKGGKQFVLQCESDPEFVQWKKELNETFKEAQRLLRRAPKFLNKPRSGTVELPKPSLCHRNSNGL

The target in the next experiment is T5, ABL1-phosphorylated (Homo sapiens, UniProt P00519).
T5 construct: phosphorylated

[2] abbreviates: read-out: Niraparib (MK-4827) / %Ctrl @ 10000nM.
Setting [3] is: read-out: Olaparib / %Ctrl @ 10000nM.
Setting [4] is: read-out: Rucaparib / %Ctrl @ 10000nM, binding competition, % of control.
[5] abbreviates: read-out: Talazoparib (BMN 673) / %Ctrl @ 10000nM.

T5 sequence (P00519 whole entry): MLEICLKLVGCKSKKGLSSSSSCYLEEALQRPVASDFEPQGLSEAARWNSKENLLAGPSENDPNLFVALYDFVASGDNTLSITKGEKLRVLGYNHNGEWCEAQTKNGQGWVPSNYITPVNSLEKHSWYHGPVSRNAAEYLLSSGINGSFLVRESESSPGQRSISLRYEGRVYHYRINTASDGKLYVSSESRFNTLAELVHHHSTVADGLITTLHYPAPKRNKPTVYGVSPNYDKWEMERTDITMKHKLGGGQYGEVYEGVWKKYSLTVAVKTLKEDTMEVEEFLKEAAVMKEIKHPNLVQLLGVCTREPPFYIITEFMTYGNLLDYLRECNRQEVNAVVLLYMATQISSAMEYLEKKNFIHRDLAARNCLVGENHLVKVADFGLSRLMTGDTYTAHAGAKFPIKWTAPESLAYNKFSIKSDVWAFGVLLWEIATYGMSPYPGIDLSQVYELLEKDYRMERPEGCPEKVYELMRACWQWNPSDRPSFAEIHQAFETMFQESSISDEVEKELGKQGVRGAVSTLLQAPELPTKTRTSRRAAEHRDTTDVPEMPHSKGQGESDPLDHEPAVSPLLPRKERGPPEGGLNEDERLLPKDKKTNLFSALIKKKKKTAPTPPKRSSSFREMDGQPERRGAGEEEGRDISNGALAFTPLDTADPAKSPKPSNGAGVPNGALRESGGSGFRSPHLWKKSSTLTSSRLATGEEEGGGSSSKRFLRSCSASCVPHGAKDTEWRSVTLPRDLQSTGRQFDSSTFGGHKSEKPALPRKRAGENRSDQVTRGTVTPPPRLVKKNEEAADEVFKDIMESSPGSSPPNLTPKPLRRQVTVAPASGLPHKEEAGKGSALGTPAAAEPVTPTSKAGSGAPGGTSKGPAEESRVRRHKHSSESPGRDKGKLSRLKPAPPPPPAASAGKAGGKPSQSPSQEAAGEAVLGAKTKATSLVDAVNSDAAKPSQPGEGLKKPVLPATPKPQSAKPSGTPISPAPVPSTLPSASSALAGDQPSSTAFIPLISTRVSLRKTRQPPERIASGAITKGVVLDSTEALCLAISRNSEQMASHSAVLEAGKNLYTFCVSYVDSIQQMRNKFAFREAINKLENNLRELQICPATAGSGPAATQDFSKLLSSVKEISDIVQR
T1 sequence (P00519 whole entry F317I): as the sequence (P00519 whole entry) above, with F317I counted along it
PIK3CA(Q546K), sequence (P42336 whole entry Q546K): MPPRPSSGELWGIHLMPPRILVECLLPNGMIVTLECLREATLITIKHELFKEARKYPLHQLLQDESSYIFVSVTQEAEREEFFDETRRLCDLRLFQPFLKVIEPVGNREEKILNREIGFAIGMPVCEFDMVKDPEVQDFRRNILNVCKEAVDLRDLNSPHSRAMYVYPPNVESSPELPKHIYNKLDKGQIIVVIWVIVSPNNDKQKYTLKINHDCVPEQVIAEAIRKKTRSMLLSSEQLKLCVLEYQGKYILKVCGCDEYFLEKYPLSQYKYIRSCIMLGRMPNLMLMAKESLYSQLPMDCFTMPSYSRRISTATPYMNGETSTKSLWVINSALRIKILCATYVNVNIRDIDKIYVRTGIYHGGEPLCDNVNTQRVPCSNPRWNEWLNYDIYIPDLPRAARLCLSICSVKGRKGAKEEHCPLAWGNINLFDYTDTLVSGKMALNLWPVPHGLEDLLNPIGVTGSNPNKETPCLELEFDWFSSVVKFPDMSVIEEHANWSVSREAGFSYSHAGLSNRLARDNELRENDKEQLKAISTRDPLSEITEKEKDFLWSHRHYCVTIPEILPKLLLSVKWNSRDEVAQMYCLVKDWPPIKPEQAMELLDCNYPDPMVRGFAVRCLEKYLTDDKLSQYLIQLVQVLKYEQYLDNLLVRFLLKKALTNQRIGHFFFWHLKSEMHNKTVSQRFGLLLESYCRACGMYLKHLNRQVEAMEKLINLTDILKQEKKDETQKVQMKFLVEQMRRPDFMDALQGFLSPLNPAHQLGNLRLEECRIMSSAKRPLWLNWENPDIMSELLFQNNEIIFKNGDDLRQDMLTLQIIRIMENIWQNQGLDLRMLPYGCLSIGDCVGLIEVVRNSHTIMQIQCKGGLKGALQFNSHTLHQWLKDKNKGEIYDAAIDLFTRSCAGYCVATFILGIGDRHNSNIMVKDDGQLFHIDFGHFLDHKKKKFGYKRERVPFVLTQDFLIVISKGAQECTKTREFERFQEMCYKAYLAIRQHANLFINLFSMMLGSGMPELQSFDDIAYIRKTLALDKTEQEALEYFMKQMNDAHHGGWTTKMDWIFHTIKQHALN
CAMK2A, sequence (Q9UQM7 whole entry): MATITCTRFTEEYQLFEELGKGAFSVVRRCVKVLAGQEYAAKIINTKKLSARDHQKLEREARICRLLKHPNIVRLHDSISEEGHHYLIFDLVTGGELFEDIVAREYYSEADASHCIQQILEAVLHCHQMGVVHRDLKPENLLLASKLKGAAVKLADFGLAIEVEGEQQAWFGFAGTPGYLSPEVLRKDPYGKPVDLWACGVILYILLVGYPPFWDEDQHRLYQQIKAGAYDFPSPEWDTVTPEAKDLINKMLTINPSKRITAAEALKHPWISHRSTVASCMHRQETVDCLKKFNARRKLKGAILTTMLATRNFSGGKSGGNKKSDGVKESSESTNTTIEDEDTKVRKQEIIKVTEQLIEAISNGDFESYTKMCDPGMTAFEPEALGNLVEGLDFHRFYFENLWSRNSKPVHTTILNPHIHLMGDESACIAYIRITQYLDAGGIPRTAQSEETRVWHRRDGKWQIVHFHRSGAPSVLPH
FYN, sequence (P06241 whole entry): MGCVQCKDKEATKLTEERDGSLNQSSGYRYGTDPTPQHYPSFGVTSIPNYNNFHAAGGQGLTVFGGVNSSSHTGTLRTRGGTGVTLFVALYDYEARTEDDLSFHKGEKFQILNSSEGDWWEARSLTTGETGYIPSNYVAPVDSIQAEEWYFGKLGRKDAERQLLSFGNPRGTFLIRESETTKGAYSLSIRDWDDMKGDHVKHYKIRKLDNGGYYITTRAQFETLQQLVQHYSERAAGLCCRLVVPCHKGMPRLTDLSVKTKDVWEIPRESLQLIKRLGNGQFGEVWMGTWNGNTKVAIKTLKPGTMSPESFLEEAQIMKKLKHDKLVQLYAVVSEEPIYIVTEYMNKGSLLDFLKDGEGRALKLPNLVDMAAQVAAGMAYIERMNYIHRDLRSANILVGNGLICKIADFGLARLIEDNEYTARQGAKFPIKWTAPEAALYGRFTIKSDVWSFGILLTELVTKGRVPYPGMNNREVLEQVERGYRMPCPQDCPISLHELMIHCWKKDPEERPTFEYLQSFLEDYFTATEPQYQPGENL
EGFR(L858R,T790M), sequence (P00533 whole entry T790M/L858R): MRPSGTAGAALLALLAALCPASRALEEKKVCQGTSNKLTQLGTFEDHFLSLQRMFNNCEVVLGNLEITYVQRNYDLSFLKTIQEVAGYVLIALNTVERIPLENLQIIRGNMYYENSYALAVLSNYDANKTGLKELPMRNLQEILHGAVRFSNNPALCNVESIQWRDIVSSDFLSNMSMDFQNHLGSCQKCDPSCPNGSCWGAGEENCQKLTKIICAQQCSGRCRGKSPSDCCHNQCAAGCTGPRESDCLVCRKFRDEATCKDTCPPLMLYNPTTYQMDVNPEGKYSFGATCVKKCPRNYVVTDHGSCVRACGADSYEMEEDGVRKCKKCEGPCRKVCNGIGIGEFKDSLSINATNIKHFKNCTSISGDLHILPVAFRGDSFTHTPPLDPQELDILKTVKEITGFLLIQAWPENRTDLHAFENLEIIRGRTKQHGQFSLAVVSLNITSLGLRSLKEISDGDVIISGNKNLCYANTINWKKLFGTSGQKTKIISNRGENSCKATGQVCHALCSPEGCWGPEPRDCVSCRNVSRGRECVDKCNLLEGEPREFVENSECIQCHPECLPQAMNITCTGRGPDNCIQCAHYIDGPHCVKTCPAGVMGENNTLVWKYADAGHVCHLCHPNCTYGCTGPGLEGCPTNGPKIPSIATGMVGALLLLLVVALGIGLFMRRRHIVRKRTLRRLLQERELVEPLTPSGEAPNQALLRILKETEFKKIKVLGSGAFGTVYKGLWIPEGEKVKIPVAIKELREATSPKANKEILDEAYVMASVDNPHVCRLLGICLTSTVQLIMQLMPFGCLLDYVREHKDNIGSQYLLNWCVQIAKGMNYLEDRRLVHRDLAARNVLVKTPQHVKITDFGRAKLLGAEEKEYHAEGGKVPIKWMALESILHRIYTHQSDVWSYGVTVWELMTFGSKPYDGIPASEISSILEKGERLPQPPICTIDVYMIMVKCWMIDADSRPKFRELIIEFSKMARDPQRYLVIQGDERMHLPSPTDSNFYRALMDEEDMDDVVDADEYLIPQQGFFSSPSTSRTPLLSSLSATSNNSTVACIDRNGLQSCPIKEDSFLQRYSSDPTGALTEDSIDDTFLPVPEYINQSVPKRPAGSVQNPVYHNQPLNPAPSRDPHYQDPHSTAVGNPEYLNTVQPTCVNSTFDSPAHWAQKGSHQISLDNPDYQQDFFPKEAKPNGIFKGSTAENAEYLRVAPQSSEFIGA

On to `NC(=O)c1cccc2cn(-c3ccc([C@@H]4CCCNC4)cc3)nc12` [Niraparib], for which the percent of control binding at 10 µM on PIK3CA(Q546K) (setting [2]) stood at 100%; at CAMK2A (setting [2]) it was 78%; in experiment [1] (setting [2]), 89%; at CTK (setting [2]) it was 100%; at HIPK4 (setting [2]), 80%; at EPHA5 (setting [2]), 94%. Besides, the percent of control binding at 10 µM on GRK3 (setting [2]) was 95%; at ABL1-phosphorylated (setting [2]), 80%; on FYN (setting [2]) it was 88%; at FGFR3 (setting [2]), 94%; at EGFR(L858R,T790M) (setting [2]) it was 100%.
Consider `O=C(c1cc(Cc2n[nH]c(=O)c3ccccc23)ccc1F)N1CCN(C(=O)C2CC2)CC1` [Olaparib], for which the percent of control binding at 10 µM on PIK3CA(Q546K) (setting [3]) turned out to be 90%; at CAMK2A (setting [3]) it was 96%; in experiment [1] (setting [3]), 86%; at CTK (setting [3]), 96%; on HIPK4 (setting [3]), 100%; on EPHA5 (setting [3]), 96%. Also, the percent of control binding at 10 µM stood at 82% at GRK3 (setting [3]); 98% at ABL1-phosphorylated (setting [3]); 72% on FYN (setting [3]); 100% at FGFR3 (setting [3]); 93% on EGFR(L858R,T790M) (setting [3]).
`CNCc1ccc(-c2[nH]c3cc(F)cc4c3c2CCNC4=O)cc1` [Rucaparib]: the percent of control binding at 10 µM at PIK3CA(Q546K) (setting [4]) worked out at 93%; at CAMK2A (setting [4]), 79%; in [1] (setting [4]) it was 92%; at CTK (setting [4]), 76%; at HIPK4 (setting [4]), 51%; on EPHA5 (setting [4]) it was 93%. Also, the percent of control binding at 10 µM at GRK3 (setting [4]) turned out to be 90%; on ABL1-phosphorylated (setting [4]) it was 98%; at FYN (setting [4]) it was 100%; at FGFR3 (setting [4]) it was 99%; at EGFR(L858R,T790M) (setting [4]), 70%.
With `Cn1ncnc1[C@H]1c2n[nH]c(=O)c3cc(F)cc(c23)N[C@@H]1c1ccc(F)cc1` [Talazoparib], the percent of control binding at 10 µM at PIK3CA(Q546K) (setting [5]) was 100%; at CAMK2A (setting [5]) it was 86%; in experiment [1] (setting [5]), 99%; on CTK (setting [5]), 78%; at HIPK4 (setting [5]), 100%; on EPHA5 (setting [5]) it was 96%. For the same compound, the percent of control binding at 10 µM on GRK3 (setting [5]) was found to be 81%; at ABL1-phosphorylated (setting [5]), 100%; at FYN (setting [5]), 100%; at FGFR3 (setting [5]) it was 100%; at EGFR(L858R,T790M) (setting [5]), 100%.
